According to publication PMC9537572, “Elucidation of the binding mechanism of astragaloside IV derivative with human serum albumin and its cardiotoxicity in zebrafish embryos” (Frontiers in Pharmacology, 2022):
Marks after values point to notes of the source that are not given here.

Experiments:
zebrafish = experiment: Arachidonic acid-induced thrombosis in zebrafish; type: in vivo; details: for Staining intensity of cardiac red blood cells (pixels) (mean ± se): 3 h pretreatment, arachidonic acid 1.5 h, n = 10; for Antithrombotic effect (%): vs. model group, arachidonic acid-induced thrombosis
Method: A total of 270 melanin allele mutant translucent albino strain zebrafish at 3 dpf were randomly selected, with 30 zebrafish per well in six-well plates. The concentrations of LS-102 were 6.25, 12.5, 25, 50, and 100 µg/ml, while that of AGS IV was 100 µg/ml, and the positive control drug aspirin was 25 µg/ml. After treatment with LS-102 and AGS IV for 3 h, arachidonic acid aqueous solution was administered for 1.5 h to induce a thrombosis model in zebrafish in all experimental groups except the normal group. After staining with o-anisidine, zebrafish were randomly selected from each experimental group and observed under a dissecting microscope and photographed. Data were collected to qualitatively evaluate thrombosis in zebrafish, and the intensity of cardiac erythrocyte staining (length of venous thrombus vs. number of cardiac erythrocytes) in zebrafish was analyzed and counted to establish, the preventive effect of LS-102 and AGS IV with aspirin on thrombosis in zebrafish. The formula was calculated as follows:
Thromboprophylactic effect (%) = S (drug administration group)−S (model group)/S (nomal control group)−S (model group)×100%

HSA [1] = target: T1, HSA (Homo sapiens, UniProt P02768); experiment: Site marker competitive experiments (warfarin, ibuprofen) by equilibrium dialysis; type: in vitro ADME; details: drug 0.476 mg/ml, n = 3, read-out: Plasma protein binding (converted)
Method: The site marker competitive experiments were performed using two classical site probes, warfarin and ibuprofen, which were selected as the markers of subdomain IIA (site I) and subdomain IIIA (site II) separately of HAS ([Ghuman et al., 2005]). The procedure was consistent with the method described in section 2.5, except that the concentrations of AGS IV and LS-102 were both fixed at 0.476 mg/ml, while the external dialysis solution was changed to contain the probe with a final concentration of 0, 0.06, 0.3, 1.2 mg/ml PBS solution. Briefly, the AGS IV/LS-102 HSA mixture (0.5 ml drug and 0.5 ml HSA) was separately incubated with three different concentrations of probe to evaluate the effects of warfarin or ibuprofen on drug-protein binding influence. Three replicates of each concentration were prepared. After equilibrium dialysis, the internal and external dialysates were analyzed by UHPLC-MS/MS.

zebrafish embryos [2] = experiment: Astemizole-induced cardiotoxicity in zebrafish embryos: heart rate and SV-BA spacing; type: in vivo; details: 4 µM astemizole; for Heart rate (beats/min) (Mean±SE) / SV-BA spacing (µm) (Mean±SE): 250 µg/ml, n = 10
Method: A total of 270 wild-type AB zebrafish at 3 dpf were randomly selected, and 30 zebrafish were plated in each well of a six-well plates. The concentrations of LS-102 were 27.8, 83.3 and 250 µg/ml, AGS IV was 250 µg/mL. A normal control group (fish culture water) and a 4 µM astemizole model control group were also established. Ten zebrafish were randomly selected from each group, and the heart rate and venous sinus-to-arterial bulb distance (SV-BA) of zebrafish were observed under a dissecting microscope after 2 h, 6 h and 24 h of LS-102 and AGS IV treatment. Images were collected by photographing, and the ameliorative effect of LS-102 and AGS IV on astemizole-induced cardiotoxicity in zebrafish was evaluated by the statistical significance of the heart rate and the SV-BA interval index.

HSA [3] = target: T1, HSA; experiment: Plasma protein binding rate by equilibrium dialysis and UHPLC-MS/MS; type: in vitro ADME; details: human, plasma, equilibrium dialysis 72 h at 4 °C, n = 3, read-out: Protein binding rate (%, Mean±SD) (converted)
Method: The binding rate of AGS IV/LS-102 and HSA was determined using a slightly modified equilibrium dialysis method ([Metsu et al., 2020]). […] The stock solutions of HSA (0.5 ml) and drug group (0.5 ml) were placed in a dialysis membrane bag that was ligated at both ends and then immersed in a test tube filled with 50 ml of PBS solution for 72 h at 4 °C. After equilibrium, a 0.5-ml solution of outer dialysate and internal dialysate was collected into a 2-ml EP tube, and 10 µL IS (digoxin, 0.1 mg/ml) solution was added to each tube. Both samples were added to 1.5 ml of acetonitrile and vortexed for 3 min, and then the samples were separated via centrifugation at 18,000 × g for 20 min. The supernatants were transferred to another EP tube and dried under a nitrogen stream. The residue was redissolved in 1 ml methanol, sonicated for 2 min, vortexed for 3 min, and centrifuged at 18,000 × g for 10 min. The supernatant was filtered with a 0.22 µm microporous syringe filter in a 2 ml sample vial, and 1 µL was injected into the UHPLC-MS/MS system for analysis. The plasma protein binding rate was calculated according to the following formula ([Talbert et al., 2002]): Plasma binding rate=Internal drug concentration−External drug concentration/Initial drug concentration ×100%

[4] = ref Xu et al., 2016; cited from earlier work
zebrafish embryos [5] = experiment: Astemizole-induced toxicity in zebrafish heart development; type: in vivo; details: 250 µg/mL, n=30
Method: A total of 270 wild-type AB zebrafish at 2 h post-fertilization (2 hpf) were randomly selected, and 30 zebrafish were plated in each well of a six-well plates. The concentrations of LS-102 were 27.8, 83.3 and 250 µg/ml, while that of AGS IV was 250 µg/mL. A normal control group (fish culture water) and a 4 µM astemizole model control group were also established. After LS-102 and AGS IV were cotreated with astemizole for 48 h, zebrafish heart development was observed and photographed under a microscope to evaluate the ameliorative effect of LS-102 and AGS IV on astemizole-induced toxicity in zebrafish heart development.

T1 sequence (P02768 25-609): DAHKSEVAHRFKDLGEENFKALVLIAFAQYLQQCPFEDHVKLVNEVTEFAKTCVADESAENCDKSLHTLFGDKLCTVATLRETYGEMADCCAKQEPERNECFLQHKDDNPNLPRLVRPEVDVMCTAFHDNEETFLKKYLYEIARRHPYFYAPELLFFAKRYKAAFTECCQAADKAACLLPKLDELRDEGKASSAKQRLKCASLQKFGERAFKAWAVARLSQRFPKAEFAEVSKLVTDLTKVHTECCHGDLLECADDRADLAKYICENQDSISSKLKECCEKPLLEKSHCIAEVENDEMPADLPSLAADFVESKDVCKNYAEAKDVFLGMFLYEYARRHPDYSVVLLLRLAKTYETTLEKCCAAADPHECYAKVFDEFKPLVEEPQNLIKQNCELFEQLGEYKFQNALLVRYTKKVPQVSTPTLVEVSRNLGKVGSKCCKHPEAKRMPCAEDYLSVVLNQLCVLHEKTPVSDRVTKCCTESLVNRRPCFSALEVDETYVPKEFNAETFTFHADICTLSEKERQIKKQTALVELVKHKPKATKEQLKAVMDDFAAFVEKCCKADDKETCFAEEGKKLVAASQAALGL

Compound: CC(=O)Oc1ccccc1C(=O)O [Aspirin, aspirin, reference compound]
- Staining intensity of cardiac red blood cells (pixels) (mean ± se) (zebrafish; 25 µg/ml): 2036 ± 92 pixels
- Staining intensity of cardiac red blood cells (pixels) (mean ± se) (zebrafish; 25 µg/ml, listed as aspirin): 2036 pixels
- Antithrombotic effect (%) (zebrafish; 25 µg/ml): 70^*** %
- Antithrombotic effect (%) (zebrafish; 25 µg/ml, listed as aspirin): 70%

Compound: CC(C)(O)C1CCC(C)(C2C(O)CC3(C)C4CC(OC5OC(CO)C(O)C(O)C5O)C5C(C)(C)C(OC6OCC(O)C(O)C6O)CCC56CC46CCC23C)O1 [AGS IV, 3-O-β-D-xylopyranosyl-6-O-β-D-glucopyranosyl-cycloastragenol, reference compound]
- fraction unbound at 72 h, 0.476 mg/ml (HSA [1]; with ibuprofen 0.06 mg/ml): 0.0718
- fraction unbound at 72 h, 0.476 mg/ml (HSA [1]; with ibuprofen 0.3 mg/ml): 0.0613
- fraction unbound at 72 h, 0.476 mg/ml (HSA [1]; with ibuprofen 1.2 mg/ml): 0.0281
- fraction unbound at 72 h, 0.476 mg/ml (HSA [1]; with warfarin 0.06 mg/ml): 0.051
- fraction unbound at 72 h, 0.476 mg/ml (HSA [1]; with warfarin 0.3 mg/ml): 0.089
- fraction unbound at 72 h, 0.476 mg/ml (HSA [1]; with warfarin 1.2 mg/ml): 0.0781
- fraction unbound at 72 h, 0.476 mg/ml (HSA [1]; without site markers): 0.0333
- Heart rate (beats/min) (Mean±SE) (zebrafish embryos [2]; 2 h): 148 ± 1 beats/min
- SV-BA spacing (µm) (Mean±SE) (zebrafish embryos [2]; 2 h): 210 ± 4 µm
- Heart rate (beats/min) (Mean±SE) (zebrafish embryos [2]; 6 h): 146 ± 2 beats/min
- SV-BA spacing (µm) (Mean±SE) (zebrafish embryos [2]; 6 h): 242 ± 7 µm
- Heart rate (beats/min) (Mean±SE) (zebrafish embryos [2]; 24 h): 75 ± 25 beats/min
- SV-BA spacing (µm) (Mean±SE) (zebrafish embryos [2]; 24 h): 241 ± 4 µm
- Effect on astemizole-induced heart rate slowing and SV-BA spacing increase (in words) (zebrafish embryos [2]; 24 h): no significant changes
- fraction unbound at 72 h, 0.238 mg/ml (HSA [3]; drug 0.238 mg/ml): 0.0538
- fraction unbound at 72 h, 0.476 mg/ml (HSA [3]; drug 0.476 mg/ml): 0.0258
- fraction unbound at 72 h, 0.714 mg/ml (HSA [3]; drug 0.714 mg/ml): 0.0594
- Degree of protein binding with human plasma [4]: up to 86.69%
- Phenotype: cardiac capsular oedema, lack of blood flow (share of zebrafish) (zebrafish embryos [5]; 4 µM astemizole, 48 h): 100% cardiac capsular oedema, lack of blood flow
- Mortality (zebrafish embryos [5]; cotreated with 4 µM astemizole 48 h from 2 hpf): 3.3%
- Staining intensity of cardiac red blood cells (pixels) (mean ± se) (zebrafish; 100 µg/ml): 1446 ± 54 pixels
- Antithrombotic effect (%) (zebrafish; 100 µg/ml): 5%
